# Key:
# Assay type in all cases: biochemical
# [1] = target: T1, 26S proteasome, β5 subunit (chymotrypsin-like activity) (Homo sapiens, UniProt P28074); assay: fluorogenic peptidase assay of purified human 26S proteasome with Suc-Leu-Leu-Val-Tyr-AMC
# T1 construct: gene PSMB5; purified human 26S proteasome; with other subunits of the 26S proteasome
# T1 sequence (P28074 60-263): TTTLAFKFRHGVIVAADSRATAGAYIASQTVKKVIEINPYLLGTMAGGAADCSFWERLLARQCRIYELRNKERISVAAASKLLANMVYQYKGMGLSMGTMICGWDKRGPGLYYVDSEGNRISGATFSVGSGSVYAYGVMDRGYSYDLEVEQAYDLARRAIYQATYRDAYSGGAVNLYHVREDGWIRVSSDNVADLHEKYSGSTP
# [2] = target: T2, 26S proteasome, β2 subunit (trypsin-like activity) (Homo sapiens, UniProt Q99436); assay: fluorogenic peptidase assay of purified human 26S proteasome with Ac-Arg-Leu-Arg-AMC
# T2 construct: gene PSMB7; purified human 26S proteasome; with other subunits of the 26S proteasome
# T2 sequence (Q99436 44-277): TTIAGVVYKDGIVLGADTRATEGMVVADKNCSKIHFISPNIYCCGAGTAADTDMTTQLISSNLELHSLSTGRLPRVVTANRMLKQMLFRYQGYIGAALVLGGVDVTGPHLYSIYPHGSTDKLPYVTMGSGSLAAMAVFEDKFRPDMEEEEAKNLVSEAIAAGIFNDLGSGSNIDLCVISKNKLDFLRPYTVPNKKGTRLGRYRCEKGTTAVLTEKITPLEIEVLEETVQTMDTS
# [3] = target: T3, 26S proteasome, β1 subunit (caspase-like activity) (Homo sapiens, UniProt P28072); assay: peptidase assay of purified human 26S proteasome with Z-Nle-Pro-Nle-Asp-aminoluciferin
# T3 construct: gene PSMB6; purified human 26S proteasome; with other subunits of the 26S proteasome
# T3 sequence (P28072 35-239): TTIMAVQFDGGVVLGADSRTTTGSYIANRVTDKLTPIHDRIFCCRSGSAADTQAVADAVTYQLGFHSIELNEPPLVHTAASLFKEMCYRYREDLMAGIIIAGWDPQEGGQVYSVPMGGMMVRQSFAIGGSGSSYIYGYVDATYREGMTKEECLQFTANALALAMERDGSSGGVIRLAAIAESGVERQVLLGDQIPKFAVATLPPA
structure (smiles),measurement,setting,value
O=c1cc(-c2ccc(O)cc2)oc2cc(O)cc(O)c12 [apigenin],IC50,[1],11.5 µM
same,IC50,[2],20 µM
same,IC50,[3],1.5 µM

# Source: publication PMC4928072, “Dietary apigenin potentiates the inhibitory effect of interferon-α on cancer cell viability through inhibition of 26S proteasome-mediated interferon receptor degradation” (Food & Nutrition Research, 2016)
